The source of these data is US20230103791A1 (GLAXOSMITHKLINE INTELLECTUAL PROPERTY DEVELOPMENT LIMITED, priority 2019, published 2023).

Each structure is given as a SMILES string.

The target in this experiment is T1, human Nav1.8 (Homo sapiens, UniProt Q9Y5Y9).
T1 construct: expressed in transfected cells; host or cells: HEK293 (HEK293-Nav1.8)
T1 sequence (Q9Y5Y9 whole entry): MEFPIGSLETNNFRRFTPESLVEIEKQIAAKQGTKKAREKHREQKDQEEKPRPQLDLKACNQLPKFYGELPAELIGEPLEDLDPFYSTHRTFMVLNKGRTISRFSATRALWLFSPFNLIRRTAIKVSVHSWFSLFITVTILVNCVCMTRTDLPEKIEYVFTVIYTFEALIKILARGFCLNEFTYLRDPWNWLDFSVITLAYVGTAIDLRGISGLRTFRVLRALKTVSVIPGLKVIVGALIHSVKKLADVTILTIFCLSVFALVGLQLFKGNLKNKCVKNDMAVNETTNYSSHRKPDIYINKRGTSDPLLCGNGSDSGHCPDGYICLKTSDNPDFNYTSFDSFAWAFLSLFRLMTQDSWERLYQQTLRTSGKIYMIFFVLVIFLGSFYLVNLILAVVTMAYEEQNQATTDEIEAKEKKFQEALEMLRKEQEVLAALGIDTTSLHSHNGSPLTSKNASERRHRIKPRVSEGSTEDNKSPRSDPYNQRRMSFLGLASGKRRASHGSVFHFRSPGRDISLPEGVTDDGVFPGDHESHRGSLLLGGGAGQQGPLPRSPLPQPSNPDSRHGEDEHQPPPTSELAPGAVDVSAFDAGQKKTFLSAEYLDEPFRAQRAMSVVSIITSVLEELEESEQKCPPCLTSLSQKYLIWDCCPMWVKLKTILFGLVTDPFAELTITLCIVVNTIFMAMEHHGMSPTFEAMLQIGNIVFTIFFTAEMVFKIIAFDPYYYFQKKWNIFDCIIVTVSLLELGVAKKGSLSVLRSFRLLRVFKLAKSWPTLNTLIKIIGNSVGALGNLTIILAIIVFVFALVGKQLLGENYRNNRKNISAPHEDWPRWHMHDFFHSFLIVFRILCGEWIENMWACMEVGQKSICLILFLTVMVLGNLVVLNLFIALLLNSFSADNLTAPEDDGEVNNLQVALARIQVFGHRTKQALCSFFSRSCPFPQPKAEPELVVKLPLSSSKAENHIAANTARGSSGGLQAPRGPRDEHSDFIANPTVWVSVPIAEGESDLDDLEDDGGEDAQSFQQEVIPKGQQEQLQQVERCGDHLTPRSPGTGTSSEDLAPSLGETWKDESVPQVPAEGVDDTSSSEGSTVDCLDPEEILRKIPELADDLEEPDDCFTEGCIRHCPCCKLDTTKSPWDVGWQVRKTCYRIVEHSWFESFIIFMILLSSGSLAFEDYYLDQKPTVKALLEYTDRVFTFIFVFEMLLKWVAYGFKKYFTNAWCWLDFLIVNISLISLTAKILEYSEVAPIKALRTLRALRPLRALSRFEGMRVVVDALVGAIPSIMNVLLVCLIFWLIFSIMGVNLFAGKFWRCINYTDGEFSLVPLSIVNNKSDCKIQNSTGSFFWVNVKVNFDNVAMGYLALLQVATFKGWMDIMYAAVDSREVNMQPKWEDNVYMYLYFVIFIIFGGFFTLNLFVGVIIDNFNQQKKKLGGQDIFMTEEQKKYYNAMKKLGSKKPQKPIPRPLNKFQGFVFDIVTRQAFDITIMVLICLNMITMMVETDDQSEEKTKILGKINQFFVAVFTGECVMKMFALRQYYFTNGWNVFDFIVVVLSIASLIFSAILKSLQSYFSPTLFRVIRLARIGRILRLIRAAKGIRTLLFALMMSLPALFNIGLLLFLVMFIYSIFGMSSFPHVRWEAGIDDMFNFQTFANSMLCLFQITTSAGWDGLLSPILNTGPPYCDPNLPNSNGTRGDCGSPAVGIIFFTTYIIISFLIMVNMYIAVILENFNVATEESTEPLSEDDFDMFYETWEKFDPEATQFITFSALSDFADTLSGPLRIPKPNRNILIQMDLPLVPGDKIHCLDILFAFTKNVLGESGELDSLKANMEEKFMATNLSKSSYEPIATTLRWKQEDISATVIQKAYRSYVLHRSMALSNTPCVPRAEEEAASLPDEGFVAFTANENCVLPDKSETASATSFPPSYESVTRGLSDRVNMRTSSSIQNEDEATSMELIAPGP
T1 sequence (Q07699 19-218 partner): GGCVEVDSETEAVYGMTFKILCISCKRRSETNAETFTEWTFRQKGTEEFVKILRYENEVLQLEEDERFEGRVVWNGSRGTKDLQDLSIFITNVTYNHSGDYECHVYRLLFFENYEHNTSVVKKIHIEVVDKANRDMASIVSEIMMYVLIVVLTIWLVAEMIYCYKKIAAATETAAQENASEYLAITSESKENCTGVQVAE
The experiment is described as follows: Nav1.8 sodium channels assay, QPatch 48 HTX electrophysiology in HEK293-Nav1.8 cells. It counts as cell-based. Particulars: at least one set of experimental runs; read-out: average pIC50 value against Nav1.8 (converted). In a few lines:
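IC50 came from 6-8 point curves of P2 current amplitude, normalized to baseline and a positive reference, and corrected for run-down using vehicle-only wells. Automated patch clamp used HEK293-Nav1.8 (with Navβ1 and TREK1) at pH 7.4 outside and CsF-based solution inside. An 8 s inactivating step at −46 mV preceded the 0 mV test pulse, repeated at 0.07 Hz.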
In general terms: In patch-clamp work, channel activity is measured electrically.
On to `Cc1[nH]c(=O)ccc1N1CN(c2ccccc2CC(F)(F)F)c2ccc(C(F)(F)F)cc2C1=O` [Example 240, 3-(2-Methyl-6-oxo-1,6-dihydropyridin-3-yl)-1-(2-(2,2,2-trifluoroethyl)phenyl)-6-(trifluoromethyl)-2,3-dihydroquinazolin-4(1H)-one], for which the IC50 was no more than 0.1 µM.
To `Cc1cc(F)ccc1N1CN(c2ccc(=O)[nH]c2C)C(=O)c2ccc(OC(F)F)nc21` [Example 241, 7-(difluoromethoxy)-1-(4-fluoro-2-methylphenyl)-3-(2-methyl-6-oxo-1,6-dihydropyridin-3-yl)-2,3-dihydropyrido[2,3-d]pyrimidin-4(1H)-one] belongs 0.126 to 0.631 µM; to `Cc1cc(F)ccc1N1CN(c2ccc(=O)[nH]c2C)C(=O)c2cc(F)c(C#N)cc21` [Example 242, 6-fluoro-1-(4-fluoro-2-methylphenyl)-3-(2-methyl-6-oxo-1,6-dihydropyridin-3-yl)-4-oxo-1,2,3,4-tetrahydroquin-azoline-7-carbonitrile], no more than 0.1 µM; to `CCc1cc(F)ccc1N1CN(c2ccncc2C)C(=O)c2cc(Cl)c(C#N)cc21` [Example 243, 6-chloro-1-(2-ethyl-4-fluorophenyl)-3-(3-methylpyridin-4-yl)-4-oxo-1,2,3,4-tetrahydroquin-azoline-7-carbonitrile], 0.126 to 0.631 µM.
For the compound `Cc1c[n+]([O-])ccc1N1CN(c2ccc(F)cc2C)c2cc(C(F)F)c(Cl)cc2C1=O` [Example 244, 4-(6-Chloro-7-(difluoromethyl)-1-(4-fluoro-2-methylphenyl)-4-oxo-1,4-dihydroquinazolin-3(2H)-yl)-3-methylpyridine 1-oxide], the IC50 was no more than 0.1 µM.
As to `CCc1cc(F)ccc1N1CN(c2cc[n+]([O-])cc2C)C(=O)c2cc(Cl)c(F)cc21` [Example 245, 4-(6-chloro-1-(2-ethyl-4-fluorophenyl)-7-fluoro-4-oxo-1,4-dihydroquinazolin-3(2H)-y1)-3-methylpyridine 1-oxide], the IC50 was no more than 0.1 µM.
For the compound `Cc1c[n+]([O-])ccc1N1CN(c2ccc(OC(F)(F)F)cc2C)c2cc(F)c(Cl)cc2C1=O` [Example 246, 4-(6-chloro-7-fluoro-1-(2-methyl-4-(trifluoromethoxy)phenyl)-4-oxo-1,4-dihydroquinazolin-3(2H)-yl)-3-methylpyridine 1-oxide], the IC50 is no more than 0.1 µM.
In the case of `CCc1cc(F)ccc1N1CN(c2cc[n+]([O-])cc2C)C(=O)c2cc(Cl)c(C#N)cc21` [Example 247, 4-(6-chloro-7-cyano-1-(2-ethyl-4-fluorophenyl)-4-oxo-1,4-dihydroquinazolin-3(2H)-yl)-3-methylpyridine 1-oxide], the IC50 was no more than 0.1 µM.
To `Cc1cc(F)ccc1N1CN(c2ccc(C(N)=O)[n+]([O-])c2)C(=O)c2c1ccc(Cl)c2F` [Example 248, 2-carbamoyl-5-(6-chloro-5-fluoro-1-(4-fluoro-2-methylphenyl)-4-oxo-1,4-dihydroquinazolin-3(2H)-yl)pyridine 1-oxide] belongs 0.794 to 7.94 µM; to `Cc1cc(F)ccc1N1CN(c2ccc[n+]([O-])c2)C(=O)c2cc(C(F)(F)F)ccc21` [Example 249, 3-(1-(4-fluoro-2-methylphenyl)-4-oxo-6-(trifluoromethyl)-1,4-dihydroquinazolin-3(2H)-yl)pyridine 1-oxide], 0.794 to 7.94 µM; to `Cc1c[n+]([O-])ccc1N1CN(c2ccc(F)cc2C)c2ccc(C(F)(F)F)cc2C1=O` [Example 254, 4-(1-(4-fluoro-2-methylphenyl)-4-oxo-6-(trifluoromethyl)-1,4-dihydroquinazolin-3(2H)-yl)-3-methylpyridine 1-oxide], 0.126 to 0.631 µM.
Turning to `Cc1cc(N2CN(c3ccc(F)cc3C)c3ccc(C(F)(F)F)cc3C2=O)c[n+]([O-])c1` [Example 255, 3-(1-(4-fluoro-2-methylphenyl)-4-oxo-6-(trifluoromethyl)-1,4-dihydroquinazolin-3(2H)-yl)-5-methylpyridine 1-oxide], the IC50 was 0.794 to 7.94 µM.
For the compound `Cc1c[n+]([O-])ccc1N1CN(c2ccc(OC(F)(F)F)cc2C)c2ccc(C(F)(F)F)cc2C1=O` [Example 256, 3-methyl-4-(1-(2-methyl-4-(trifluoromethoxy)phenyl)-4-oxo-6-(trifluoromethyl)-1,4-dihydroquinazolin-3(2H)-yl)pyridine 1-oxide], the IC50 is no more than 0.1 µM.
For the compound `Cc1cc(F)ccc1N1CN(c2ccc(=O)[nH]c2N)C(=O)c2cc(C(F)(F)F)ccc21` [Example 257, 3-(2-Amino-6-oxo-1,6-dihydropyridin-3-yl)-1-(4-fluoro-2-methylphenyl)-6-(trifluoromethyl)-2,3-dihydroquinazolin-4(1H)-one], the IC50 was no more than 0.1 µM.
To `Cc1cc(F)ccc1N1CN(c2ccc(=O)[nH]c2C)C(=O)c2ccc(C3COC3)cc21` [Example 265, 1-(4-Fluoro-2-methylphenyl)-3-(2-methyl-6-oxo-1,6-dihydropyridin-3-yl)-7-(oxetan-3-yl)-2,3-dihydroquinazolin-4(1H)-one] belongs 0.126 to 0.631 µM; to `Cc1cc(O)ccc1N1CN(c2ccc(F)cc2C)c2ccc(C(F)(F)F)cc2C1=O` [Example 266, 1-(4-Fluoro-2-methylphenyl)-3-(4-hydroxy-2-methylphenyl)-6-(trifluoromethyl)-2,3-dihydroquinazolin-4(1H)-one], 0.794 to 7.94 µM.
With `Cc1cc(O)ccc1N1CN(c2ccc(F)cc2C)c2cc(C(F)(F)F)ccc2C1=O` [Example 267, 1-(4-Fluoro-2-methylphenyl)-3-(4-hydroxy-2-methylphenyl)-7-(trifluoromethyl)-2,3-dihydroquinazolin-4(1H)-one], the IC50 was 0.794 to 7.94 µM.
Regarding `Cc1cc(F)ccc1N1CN(C2CCC(=O)NC2)C(=O)c2ccc(C(F)(F)F)cc21` (centres unmarked) [Example 268], the IC50 is 0.126 to 0.631 µM.
On to `CC1=C(N2CN(c3ccc(F)cc3C)c3cc(C(F)(F)F)ccc3C2=O)CCC(=O)N1` [Example 269, 1-(4-fluoro-2-methylphenyl)-3-(2-methyl-6-oxo-1,4,5,6-tetrahydropyridin-3-yl)-7-(trifluoromethyl)-2,3-dihydroquinazolin-4(1H)-one], for which the IC50 is no more than 0.1 µM.
For `Cc1cc(F)ccc1N1CN(C2CNC(=O)NC2)C(=O)c2ccc(C(F)(F)F)cc21` [Example 270, 1-(4-fluoro-2-methylphenyl)-3-(2-oxohexahydro-pyrimidin-5-yl)-7-(trifluoromethyl)-2,3-dihydroquinazolin-4(1H)-one], the IC50 was 0.126 to 0.631 µM.
Consider `CC1=C(N2CN(c3ccc(F)cc3C)c3cc(C(F)(F)F)ccc3C2=O)CNC(=O)N1` [Example 271, 1-(4-fluoro-2-methylphenyl)-3-(6-methyl-2-oxo-1,2,3,4-tetrahydro-pyrimidin-5-yl)-7-(trifluoromethyl)-2,3-dihydroquinazolin-4(1H)-one], for which the IC50 was no more than 0.1 µM.
Regarding `Cc1cc(N)ncc1N1CN(c2ccc(F)cc2C)c2ccc(C(F)(F)F)cc2C1=O` [Example 277, 3-(6-Amino-4-methylpyridin-3-yl)-1-(4-fluoro-2-methylphenyl)-6-(trifluoromethyl)-2,3-dihydroquinazolin-4(1H)-one], the IC50 was 0.126 to 0.631 µM.
Regarding `Cc1[nH]c(=O)ccc1N1CN([C@H]2CCCC[C@@H]2C)c2cc(C(F)(F)F)ccc2C1=O` [Example 279, 3-(2-Methyl-6-oxo-1,6-dihydropyridin-3-yl)-1-((1S,2S)-2-methylcyclohexyl)-7-(trifluoromethyl)-2,3-dihydroquinazolin-4(1H)-one], the IC50 was no more than 0.1 µM.
